Laboratory results published in US20040229881A1, “Methods of use of antimicrobial compounds against pathogenic mycoplasma bacteria” (SmithKline Beecham Corporation, priority 1999, published 2004).
Values after ≈ are worked out from the molar mass of the structure shown. Read-outs that look alike come from different tables or passages of the source.

How the values were obtained:
Type in all cases: cell-based
[1] = tested on: Mycoplasma pneumoniae (MPN); test: MIC by micro-broth dilution, Mycoplasma pneumoniae
Procedure: (§1) Organisms used in the analyses included Mycoplasma pneumoniae (MPN), M. hominis (Mh), M. fermentans (Mf), M. genitalium (Mg), M. penetrans (Mp) and Ureaplasma urealyticum (Uu). Minimum Inhibitory Concentrations (MICs) were determined using a micro-broth dilution method. Assays for Ureaplasma urealyticum were performed in 10B media and all other mycoplasma assays were carried out in SP4 medium.

[2] = tested on: M. hominis (Mh); test: MIC by micro-broth dilution, M. hominis; details: 49 isolates, SP4 medium
Procedure: as §1

[3] = tested on: M. fermentans (Mf); test: MIC by micro-broth dilution, M. fermentans; details: 19 isolates, SP4 medium
Procedure: as §1

[4] = tested on: Ureaplasma urealyticum (Uu); test: MIC by micro-broth dilution, Ureaplasma urealyticum
Procedure: as §1

[5] = tested on: M. genitalium (Mg); test: MIC by micro-broth dilution, M. genitalium; details: Mycoplasmoides genitalium, 2 isolates, one line per isolate, SP4 medium, read-out: MICs for Mg
Procedure: as §1

[6] = tested on: M. penetrans (Mp); test: MIC by micro-broth dilution, M. penetrans; details: 1 isolate, SP4 medium; for MIC: read-out: MICs for Mp
Procedure: as §1

[7] = MPN, 103 isolates, SP4 medium, read-out: MIC 90
[8] = Metamycoplasma hominis, read-out: MIC 90
[9] = Mycoplasmopsis fermentans, read-out: MIC 90
[10] = Uu, 99 isolates, 10B media, read-out: MIC 90

Structure (SMILES)	MIC90 [1, 7]	MIC90 [2, 8]	MIC90 [3, 9]	MIC90 [4, 10]	MIC [5]	MIC [6]	MIC90 [2]	MIC90 [3]	MICs for Mp [6]	MIC90 [1]	MIC90 [4]
CC[C@H]1OC(=O)[C@H](C)[C@@H](O[C@H]2C[C@@](C)(OC)[C@@H](O)[C@H](C)O2)[C@H](C)[C@@H](O[C@@H]2O[C@H](C)C[C@H](N(C)C)[C@H]2O)[C@](C)(O)C[C@@H](C)CN(C)[C@H](C)[C@@H](O)[C@]1(C)O [Azith, azithromycin]	≤ 0.008 µg/mL		2 µg/mL (≈ 2.67 µM)	4 µg/mL (≈ 5.34 µM)	≤ 0.008 µg/mL	≤ 0.008 µg/mL					
CC[C@H]1OC(=O)[C@H](C)[C@@H](O[C@H]2C[C@@](C)(OC)[C@@H](O)[C@H](C)O2)[C@H](C)[C@@H](O[C@@H]2O[C@H](C)C[C@H](N(C)C)[C@H]2O)[C@](C)(OC)C[C@@H](C)C(=O)[C@H](C)[C@@H](O)[C@]1(C)O [Clar, clarithromycin]	≤ 0.008 µg/mL		64 µg/mL (≈ 85.6 µM)	0.063 µg/mL (≈ 0.0842 µM)	≤ 0.008 µg/mL	≤ 0.008 µg/mL					
Cc1c(F)c(N2CCNC(C)C2)cc2c1c(=O)c(C(=O)O)cn2C1CC1 (stereo not shown) [Grep, grepafloxacin]	0.125 µg/mL (≈ 0.348 µM)	0.031 µg/mL (≈ 0.0863 µM)	0.016 µg/mL (≈ 0.0445 µM)	1 µg/mL (≈ 2.78 µM)	0.125 µg/mL (≈ 0.348 µM)	0.016 µg/mL (≈ 0.0445 µM)					
CN(C)[C@@H]1C(O)=C(C(N)=O)C(=O)[C@@]2(O)C(O)=C3C(=O)c4c(O)cccc4[C@@](C)(O)[C@H]3C[C@@H]12 [Tet, tetracycline]		32 µg/mL (≈ 72 µM)	0.063 µg/mL (≈ 0.142 µM)		0.063 µg/mL (≈ 0.142 µM)	0.125 µg/mL (≈ 0.281 µM)				0.25 µg/mL (≈ 0.563 µM)	1 µg/mL (≈ 2.25 µM)

Continued, in another order:

MIC90 [1, 7]	MIC90 [2, 8]	MIC90 [3, 9]	MIC90 [4, 10]	MIC [5]	MIC [6]	MIC90 [2]	MIC90 [3]	MICs for Mp [6]	Structure (SMILES)	MIC90 [1]	MIC90 [4]
0.125 µg/mL (≈ 0.321 µM)	≤ 0.008 µg/mL	≤ 0.008 µg/mL	0.25 µg/mL (≈ 0.642 µM)	0.063 µg/mL (≈ 0.162 µM)	≤ 0.008 µg/mL				CO/N=C1\CN(c2nc3c(cc2F)c(=O)c(C(=O)O)cn3C2CC2)CC1CN (racemic) [Gem, (R,S)-7-(3-aminomethyl-4-methoxyiminopyrrolidin-1-yl)-1-cyclopropyl-6-fluoro-4-oxo-1,4-dihydro-1,8-naphthyridine-3-carboxylic acid]		
						≦0.008 ug/ml	0.031 µg/mL (≈ 0.0729 µM)	≦0.008 ug/ml	CCC[C@@H]1C[C@@H](C(=O)N[C@@H]([C@H]2O[C@H](SC)[C@H](O)[C@@H](O)[C@H]2O)[C@H](C)Cl)N(C)C1 [Clin, clindamycin]		
0.5 µg/mL (≈ 1.38 µM)	0.25 µg/mL (≈ 0.692 µM)	0.031 µg/mL (≈ 0.0858 µM)	1 µg/mL (≈ 2.77 µM)	0.5 µg/mL (≈ 1.38 µM)	0.031 µg/mL (≈ 0.0858 µM)				C[C@H]1COc2c(N3CCN(C)CC3)c(F)cc3c(=O)c(C(=O)O)cn1c23 [Lev, levofloxacin]		
						0.031 µg/mL (≈ 0.0745 µM)	0.016 µg/mL (≈ 0.0384 µM)	≦0.008 ug/ml	N[C@@H]1[C@H]2CN(c3nc4c(cc3F)c(=O)c(C(=O)O)cn4-c3ccc(F)cc3F)C[C@@H]12 [Trov, trovafloxacin]		
